Experimental data from patent US12721832B2, “Anti-senescence plant polyphenol drug downregulating senescence-related secretory phenotype and use thereof” (BYHEALTH CO., LTD., priority 2021, dated 2026).

What was measured:
SASP factors = assay: LCM and qRT-PCR of SASP factors in mouse lesions; type: in vivo, mice; conditions: MIT/PCC1 vs MIT, stromal cells
Protocol: The stromal cells and cancer cells were specifically separated by LCM technology, total RNA was prepared and used for SASP expression detection. A P>0.05; *, P<0.05; **, P<0.01; ***, P<0.001.
In a preclinical treatment trial, subcutaneously transplanted mice were fed with a standard experimental diet, after 2 weeks chemotherapy drugs mitoxantrone (MIT, dose: 0.2 mg/kg) and/or procyanidin C1 (PCC1) (500 μl, dose: 10 mg/kg) via intraperitoneal administration. The time points were: the former was administrated on the first day of the 3rd, 5th and 7th weeks, and the latter was administrated on the first day of the 5th and 7th weeks. A total of 3 cycles of MIT administration were carried out throughout the course of treatment, and each cycle lasted for 2 weeks. After the course of treatment, mouse tumors were harvested for volume measurement and histological analysis. Each mouse cumulatively received 0.6 mg/kg body weight of MIT and 30 mg/kg body weight of PCC1. In order to cause systemic expression of SASP factor induced by chemotherapy, MIT was administered to mice through intravenous infusion according to the above steps and sequence, but the dose was reduced to 0.1 mg/kg body weight/each time (the cumulative dose of MIT received in the whole course of treatment was 0.3 mg/kg body weight) to reduce drug-related toxicity. […]

[1] = test system: PC3/PSC27 xenograft tumors; assay: Disease-free survival of tumor-bearing NOD/SCID mice; type: in vivo; conditions: PCC1 alone
Text: When the tumor volume in the vehicle, MIT, PCC1 and MIT/PCC1 groups exceeds 2000 mm^3, it is considered that severe disease has occurred, and the mice need to be killed in time and the tumor bearing status should be detected. ^, P>0.05; **, P<0.01.
We next compared the survival of animals in different drug-treated groups, primarily in a time-prolonged manner to assess the consequences of tumor progression. In this preclinical cohort, animals were monitored for prostate tumor growth, and severe disease was judged to have occurred once the […] tumor burden in mice was prominent (size ≥2000 mm^3), which was a method used for assessing progression of tumors and other diseases in certain conditions.

PSC27 cells = assay: Population doubling test of PSC27; type: cell-based, human
Protocol: The cells were damaged by BLEO at passage 10 (p10), and then PCC1 was added to the medium at day 8. The effect of PCC1 on cell proliferation potential is determined by comparative analysis of the population doubling (PD) of CTRL group, BLEO group, PCC1 group and BLEO/PCC1 group. ^, P>0.05; ***, P<0.001.

## Oc1cc(O)c2c(c1)O[C@H](c1ccc(O)c(O)c1)[C@H](O)[C@H]2c1c(O)cc(O)c2c1O[C@H](c1ccc(O)c(O)c1)[C@H](O)[C@H]2c1c(O)cc(O)c2c1O[C@H](c1ccc(O)c(O)c1)[C@H](O)C2 [PCC1, procyanidin C1]
SASP factors
  MIT-induced SASP expression change upon PCC1: largely reversed
[1]
  survival benefit of single agent: only a marginal extension of survival
PSC27 cells; BLEO and PCC1 combined treatment vs BLEO group
  population doubling (PD) ability: significantly increased
PSC27 cells; PCC1 alone, proliferating cells
  effect on PD of proliferating cells: did not appear to affect
